Laboratory results: ChEMBL document CHEMBL3991601, “The target landscape of clinical kinase drugs” (Science, 2017)
The source made the active and inactive calls.

Columns and labels:
[1] = biological target: T1, Beta-adrenergic receptor kinase 1 (Homo sapiens, UniProt P25098)
T1 sequence (P25098 whole entry): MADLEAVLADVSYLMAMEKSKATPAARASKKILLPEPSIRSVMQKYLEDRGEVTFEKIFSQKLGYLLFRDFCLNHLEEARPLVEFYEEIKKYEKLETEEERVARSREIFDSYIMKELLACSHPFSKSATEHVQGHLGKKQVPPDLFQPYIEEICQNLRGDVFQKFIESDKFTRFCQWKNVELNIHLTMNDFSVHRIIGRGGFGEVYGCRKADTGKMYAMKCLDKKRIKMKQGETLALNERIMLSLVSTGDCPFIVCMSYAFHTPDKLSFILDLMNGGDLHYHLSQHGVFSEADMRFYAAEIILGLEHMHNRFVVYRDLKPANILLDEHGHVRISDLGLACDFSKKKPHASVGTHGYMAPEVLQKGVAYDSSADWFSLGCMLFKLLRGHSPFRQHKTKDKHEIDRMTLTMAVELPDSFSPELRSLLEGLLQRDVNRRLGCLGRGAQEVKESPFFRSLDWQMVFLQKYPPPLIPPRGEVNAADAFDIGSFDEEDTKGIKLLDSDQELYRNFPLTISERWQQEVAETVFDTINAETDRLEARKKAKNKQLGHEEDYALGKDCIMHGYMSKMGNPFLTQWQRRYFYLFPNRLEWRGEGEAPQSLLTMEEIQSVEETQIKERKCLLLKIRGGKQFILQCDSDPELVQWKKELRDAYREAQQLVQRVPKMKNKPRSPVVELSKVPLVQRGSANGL

[2] = biological target: Calcium/calmodulin-dependent protein kinase type II subunit delta (Homo sapiens, UniProt Q13557)
[3] = biological target: Cyclin-dependent kinase 2 (Homo sapiens, UniProt P24941)
dCTP pyrophosphatase 1 = biological target: T2, dCTP pyrophosphatase 1 (Homo sapiens, UniProt Q9H773)
T2 sequence (Q9H773 whole entry): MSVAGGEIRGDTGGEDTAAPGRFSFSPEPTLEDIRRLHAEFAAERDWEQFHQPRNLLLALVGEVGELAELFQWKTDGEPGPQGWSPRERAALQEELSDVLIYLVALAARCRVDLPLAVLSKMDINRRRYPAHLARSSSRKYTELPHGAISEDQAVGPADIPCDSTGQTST

[4] = biological target: Glycogen synthase kinase-3 alpha (Homo sapiens, UniProt P49840)
[5] = biological target: MAP/microtubule affinity-regulating kinase 3 (Homo sapiens, UniProt P27448)
[6] = biological target: T3, Serine/threonine-protein kinase NLK (Homo sapiens, UniProt Q9UBE8)
T3 sequence (Q9UBE8 whole entry): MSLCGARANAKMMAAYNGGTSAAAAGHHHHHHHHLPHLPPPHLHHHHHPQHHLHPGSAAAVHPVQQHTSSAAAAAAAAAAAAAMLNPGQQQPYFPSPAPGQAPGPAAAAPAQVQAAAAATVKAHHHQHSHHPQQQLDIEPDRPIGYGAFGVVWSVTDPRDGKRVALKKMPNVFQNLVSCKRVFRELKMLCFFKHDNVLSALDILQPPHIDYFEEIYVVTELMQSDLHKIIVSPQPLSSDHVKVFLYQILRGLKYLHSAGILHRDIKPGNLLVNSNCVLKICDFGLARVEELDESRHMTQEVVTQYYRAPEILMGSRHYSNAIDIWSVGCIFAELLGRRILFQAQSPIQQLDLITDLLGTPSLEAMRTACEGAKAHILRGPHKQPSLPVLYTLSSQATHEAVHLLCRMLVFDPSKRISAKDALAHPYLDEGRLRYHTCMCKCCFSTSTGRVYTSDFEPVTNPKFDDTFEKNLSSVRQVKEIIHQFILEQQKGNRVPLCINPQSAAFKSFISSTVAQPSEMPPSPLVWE

[7] = biological target: T4, Tyrosine-protein kinase Tec (Homo sapiens, UniProt P42680)
T4 sequence (P42680 whole entry): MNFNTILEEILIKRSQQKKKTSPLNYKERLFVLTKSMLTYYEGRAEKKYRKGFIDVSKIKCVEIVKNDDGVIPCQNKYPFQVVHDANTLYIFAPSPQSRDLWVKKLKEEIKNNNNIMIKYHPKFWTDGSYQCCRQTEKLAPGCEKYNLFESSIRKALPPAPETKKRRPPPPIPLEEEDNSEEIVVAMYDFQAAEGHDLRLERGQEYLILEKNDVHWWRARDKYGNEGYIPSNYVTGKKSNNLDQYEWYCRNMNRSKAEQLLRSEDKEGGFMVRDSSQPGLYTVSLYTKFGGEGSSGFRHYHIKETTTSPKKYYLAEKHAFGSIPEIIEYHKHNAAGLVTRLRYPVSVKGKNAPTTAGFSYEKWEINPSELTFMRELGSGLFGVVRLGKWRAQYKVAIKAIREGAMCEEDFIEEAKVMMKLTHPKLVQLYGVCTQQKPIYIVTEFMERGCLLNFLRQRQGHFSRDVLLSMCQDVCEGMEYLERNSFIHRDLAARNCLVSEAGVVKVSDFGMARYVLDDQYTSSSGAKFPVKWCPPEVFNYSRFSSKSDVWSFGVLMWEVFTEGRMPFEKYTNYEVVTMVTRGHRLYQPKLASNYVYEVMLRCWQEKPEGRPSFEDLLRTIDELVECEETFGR

[8] = biological target: T5, Serine/threonine-protein kinase STK11 (Homo sapiens, UniProt Q15831)
T5 sequence (Q15831 whole entry): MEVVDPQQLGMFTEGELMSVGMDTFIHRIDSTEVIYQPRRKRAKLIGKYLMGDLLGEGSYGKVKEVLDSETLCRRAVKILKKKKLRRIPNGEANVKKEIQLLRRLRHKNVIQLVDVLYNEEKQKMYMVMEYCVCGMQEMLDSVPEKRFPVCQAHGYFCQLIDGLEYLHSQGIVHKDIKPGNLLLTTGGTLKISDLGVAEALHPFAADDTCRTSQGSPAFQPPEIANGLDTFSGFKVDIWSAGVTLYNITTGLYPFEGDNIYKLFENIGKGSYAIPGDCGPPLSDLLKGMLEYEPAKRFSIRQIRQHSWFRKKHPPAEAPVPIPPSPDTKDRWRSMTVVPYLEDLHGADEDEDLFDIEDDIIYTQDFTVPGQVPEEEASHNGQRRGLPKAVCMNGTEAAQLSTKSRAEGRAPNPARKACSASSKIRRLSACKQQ
Also: in the data inactive means no Kd found up to 30 µM.

Chain of Glycogen synthase kinase-3 alpha (P49840 whole entry): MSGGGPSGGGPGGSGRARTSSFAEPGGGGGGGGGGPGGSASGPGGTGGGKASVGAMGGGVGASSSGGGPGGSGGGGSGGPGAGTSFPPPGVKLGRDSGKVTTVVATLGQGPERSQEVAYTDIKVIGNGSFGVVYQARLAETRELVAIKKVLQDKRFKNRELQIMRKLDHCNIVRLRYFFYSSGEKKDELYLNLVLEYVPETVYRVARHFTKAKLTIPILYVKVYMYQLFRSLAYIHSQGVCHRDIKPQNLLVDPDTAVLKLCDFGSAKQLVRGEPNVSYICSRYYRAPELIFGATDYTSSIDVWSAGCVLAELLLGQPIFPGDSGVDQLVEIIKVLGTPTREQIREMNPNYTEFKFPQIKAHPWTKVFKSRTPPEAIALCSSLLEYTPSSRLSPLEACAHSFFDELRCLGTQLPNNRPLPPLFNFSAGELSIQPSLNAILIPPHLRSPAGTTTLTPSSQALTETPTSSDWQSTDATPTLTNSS
Chain of MAP/microtubule affinity-regulating kinase 3 (P27448 whole entry): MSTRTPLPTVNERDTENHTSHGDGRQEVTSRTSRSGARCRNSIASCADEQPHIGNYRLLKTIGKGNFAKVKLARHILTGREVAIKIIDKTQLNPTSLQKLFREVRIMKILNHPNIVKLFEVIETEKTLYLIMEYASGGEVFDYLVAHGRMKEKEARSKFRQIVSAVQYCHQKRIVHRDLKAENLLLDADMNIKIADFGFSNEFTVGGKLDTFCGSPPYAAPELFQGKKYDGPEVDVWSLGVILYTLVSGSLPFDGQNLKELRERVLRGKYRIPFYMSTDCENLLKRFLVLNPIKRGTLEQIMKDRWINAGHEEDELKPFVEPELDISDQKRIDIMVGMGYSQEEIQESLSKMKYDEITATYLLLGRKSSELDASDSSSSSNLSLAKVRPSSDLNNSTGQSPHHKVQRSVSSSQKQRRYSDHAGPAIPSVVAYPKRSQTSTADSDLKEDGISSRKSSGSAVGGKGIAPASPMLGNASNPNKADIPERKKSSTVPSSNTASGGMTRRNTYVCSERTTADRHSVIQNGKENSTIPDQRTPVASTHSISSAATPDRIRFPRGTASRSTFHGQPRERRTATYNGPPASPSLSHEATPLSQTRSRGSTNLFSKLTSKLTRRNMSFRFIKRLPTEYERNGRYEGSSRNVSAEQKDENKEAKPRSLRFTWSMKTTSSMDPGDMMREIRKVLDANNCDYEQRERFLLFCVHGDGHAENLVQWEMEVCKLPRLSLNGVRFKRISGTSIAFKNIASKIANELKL
Chain of Calcium/calmodulin-dependent protein kinase type II subunit delta (Q13557 whole entry): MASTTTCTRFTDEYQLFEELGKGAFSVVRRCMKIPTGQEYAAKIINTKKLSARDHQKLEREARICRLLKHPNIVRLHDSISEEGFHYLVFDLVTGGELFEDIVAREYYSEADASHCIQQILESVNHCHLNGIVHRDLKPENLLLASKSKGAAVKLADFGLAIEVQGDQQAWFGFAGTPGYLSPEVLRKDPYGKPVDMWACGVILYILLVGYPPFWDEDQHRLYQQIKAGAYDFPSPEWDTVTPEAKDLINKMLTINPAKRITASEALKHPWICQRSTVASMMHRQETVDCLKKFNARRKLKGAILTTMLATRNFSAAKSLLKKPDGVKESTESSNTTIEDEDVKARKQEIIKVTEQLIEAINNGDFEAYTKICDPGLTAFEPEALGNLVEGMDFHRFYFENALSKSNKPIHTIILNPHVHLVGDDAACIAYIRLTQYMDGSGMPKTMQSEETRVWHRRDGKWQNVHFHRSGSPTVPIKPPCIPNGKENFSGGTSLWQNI

Row | Structure (SMILES) | Kd [1] | Kd [2] | Kd [3] | Kd (dCTP pyrophosphatase 1) | Kd [4] | Kd [5] | Kd [6] | Kd [7] | Kd [8]
1 | C[C@@H](Oc1cc(C(=O)Nc2ccc(C(=O)N3CCN(C)CC3)cc2)nnc1N)c1c(Cl)ccc(F)c1Cl | > 30 µM (inactive) | > 30 µM (inactive) | > 30 µM (inactive) | > 30 µM (inactive) | > 30 µM (inactive) | > 30 µM (inactive) | > 30 µM (inactive) | > 30 µM (inactive) | 
2 | C[C@H]1CNCCCN1S(=O)(=O)c1cccc2cncc(F)c12 | > 30 µM (inactive) | > 30 µM (inactive) | > 30 µM (inactive) | > 30 µM (inactive) | > 30 µM (inactive) | 58.2 µM (active) | > 30 µM (inactive) | > 30 µM (inactive) | > 30 µM (inactive)
3 | CCNC(=O)C#Cc1ccc2c(c1)NC(=O)/C2=C(\Nc1ccc(CN(C)C)cc1)c1ccccc1 | > 30 µM (inactive) | > 30 µM (inactive) | > 30 µM (inactive) | > 30 µM (inactive) | > 30 µM (inactive) | > 30 µM (inactive) | > 30 µM (inactive) | 0.885 µM (active) | > 30 µM (inactive)
4 | COc1cc(Nc2ncc3c(n2)-c2ccc(Cl)cc2C(c2c(F)cccc2OC)=NC3)ccc1C(=O)O [ALISERTIB] | > 30 µM (inactive) |  |  | > 30 µM (inactive) |  |  | > 30 µM (inactive) | > 30 µM (inactive) | > 30 µM (inactive)
5 | CNC(=O)c1ccccc1Sc1ccc2c(/C=C/c3ccccn3)n[nH]c2c1 [AXITINIB] | > 30 µM (inactive) |  |  | > 30 µM (inactive) |  |  |  |  | 
6 | COc1cc([C@@H]2c3cc4c(cc3[C@H](O)[C@H]3COC(=O)[C@@H]23)OCO4)cc(OC)c1OC [AXL-1717] | > 30 µM (inactive) | > 30 µM (inactive) | > 30 µM (inactive) | > 30 µM (inactive) | > 30 µM (inactive) | > 30 µM (inactive) | > 30 µM (inactive) | > 30 µM (inactive) | > 30 µM (inactive)
7 | Cn1cc(C2=C(c3cn(C4CCN(Cc5ccccn5)CC4)c4ccccc34)C(=O)NC2=O)c2ccccc21 [ENZASTAURIN] | > 30 µM (inactive) |  |  | > 30 µM (inactive) |  |  |  |  | 
8 | C[C@@H](Oc1cc(-n2cnc3ccc(CN4CCN(C)CC4)cc32)sc1C(N)=O)c1ccccc1C(F)(F)F [GSK-461364] | > 30 µM (inactive) |  |  | > 30 µM (inactive) |  |  |  |  | 
9 | CN(C[C@@H]1COCCO1)S(=O)(=O)Nc1ccc2ccc3ncc(-c4cnn(C)c4)cc3c(=O)c2c1 [MK-2461] | > 30 µM (inactive) | > 30 µM (inactive) | > 30 µM (inactive) | > 30 µM (inactive) | > 30 µM (inactive) | > 30 µM (inactive) | > 30 µM (inactive) | > 30 µM (inactive) | > 30 µM (inactive)
10 | Cc1[nH]c(/C=C2\C(=O)Nc3ccccc32)c(C)c1CCC(=O)O [ORANTINIB] | > 30 µM (inactive) |  |  | > 30 µM (inactive) |  |  | > 30 µM (inactive) | > 30 µM (inactive) | 
11 | NC(=O)c1c(OCc2c(F)cc(Br)cc2F)nsc1NC(=O)NCCCCN1CCCC1 [OSI-632] | > 30 µM (inactive) |  |  | > 30 µM (inactive) |  |  | > 30 µM (inactive) | > 30 µM (inactive) | > 30 µM (inactive)
12 | CCCCCCCCCCCCCCCCCCOP(=O)([O-])OC1CC[N+](C)(C)CC1 [PERIFOSINE] | > 30 µM (inactive) | > 30 µM (inactive) | > 30 µM (inactive) | > 30 µM (inactive) | > 30 µM (inactive) | > 30 µM (inactive) | > 30 µM (inactive) | > 30 µM (inactive) | > 30 µM (inactive)
13 | CC(=O)NCC(=O)N1[C@@H]2CC[C@H]1c1ccc(Nc3ncc(C(F)(F)F)c(NC4CCC4)n3)cc12 [PF-03814735] | > 30 µM (inactive) |  |  | > 30 µM (inactive) |  |  | > 30 µM (inactive) | 2.32 µM (active) | > 30 µM (inactive)
14 | CNC(=O)c1cc(Oc2ccc(NC(=O)Nc3cc(C(C)(C)C)nn3-c3ccc4ncccc4c3)c(F)c2)ccn1 [REBASTINIB] | > 30 µM (inactive) | > 30 µM (inactive) | 0.199 µM (active) | > 30 µM (inactive) | > 30 µM (inactive) | > 30 µM (inactive) | > 30 µM (inactive) | > 30 µM (inactive) | > 30 µM (inactive)
15 | O=C(NOCCO)c1cc(CN2OCCCC2=O)c(F)c(F)c1Nc1ccc(I)cc1F [RO-4987655] |  |  |  | > 30 µM (inactive) |  |  |  |  | 
16 | N#CC[C@H](C1CCCC1)n1cc(-c2ncnc3[nH]ccc23)cn1 [RUXOLITINIB] | > 30 µM (inactive) |  |  | > 30 µM (inactive) |  |  |  |  | 
17 | CCS(=O)(=O)c1cccc(-c2cc(C(=O)NC3CCN(C)CC3)c(C)c3[nH]c4ncc(C)cc4c23)c1 [TAK-901] | > 30 µM (inactive) | > 30 µM (inactive) |  | > 30 µM (inactive) | 22.5 µM (active) |  | > 30 µM (inactive) | 0.282 µM (active) | > 30 µM (inactive)
18 | COc1cc2c(Nc3ccc(Cl)c(Cl)c3F)ncnc2cc1OC[C@@H]1C[C@@H]2CN(C)C[C@@H]2C1 [TESEVATINIB] | > 30 µM (inactive) | > 30 µM (inactive) | > 30 µM (inactive) | > 30 µM (inactive) | > 30 µM (inactive) | > 30 µM (inactive) | > 30 µM (inactive) | > 30 µM (inactive) | > 30 µM (inactive)
19 | C[C@@H](N)c1ccc(C(=O)Nc2ccnc3[nH]ccc23)cc1 [Y-39983] | > 30 µM (inactive) | > 30 µM (inactive) |  | > 30 µM (inactive) | 1.1 µM (active) | 38.5 µM (active) | > 30 µM (inactive) | > 30 µM (inactive) | > 30 µM (inactive)
20 | CN1C/C=C/CCOc2cccc(c2)-c2ccnc(n2)Nc2cccc(c2)C1 [ZOTIRACICLIB] | > 30 µM (inactive) | > 30 µM (inactive) |  | > 30 µM (inactive) | 0.579 µM (active) | > 30 µM (inactive) | > 30 µM (inactive) | > 30 µM (inactive) | > 30 µM (inactive)
